# Experimental data published in US8063065B2, “Azaindazole compounds as CCR1 receptor antagonists” (Boehringer Ingelheim International GmbH, priority 2008, dated 2011).
# Target: T1, CCR1 (Homo sapiens, UniProt P32246)
# T1 sequence (P32246 1-355): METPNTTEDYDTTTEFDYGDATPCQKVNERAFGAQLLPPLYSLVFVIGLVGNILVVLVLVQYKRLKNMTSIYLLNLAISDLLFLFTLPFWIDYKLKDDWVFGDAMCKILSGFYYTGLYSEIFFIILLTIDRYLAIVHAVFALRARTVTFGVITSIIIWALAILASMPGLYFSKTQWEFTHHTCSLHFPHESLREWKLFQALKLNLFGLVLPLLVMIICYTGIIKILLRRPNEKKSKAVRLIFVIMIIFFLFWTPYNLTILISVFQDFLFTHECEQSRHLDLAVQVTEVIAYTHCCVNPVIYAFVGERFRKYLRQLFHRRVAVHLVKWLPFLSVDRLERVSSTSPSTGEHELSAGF
# Assay: Method B: calcium flux in CCR1 transfected cells (Calcium 4 dye, […] FDSS6000), block of the CCR1/MIP-1α interaction
# Assay type: cell-based
# Conditions: Method B: Calcium 4 dye, MIP-1alpha at EC80
# Summary of the method: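 Calcium flux on an FDSS6000 was triggered by MIP-1α at its EC80 in stably CCR1/G-alpha-16-expressing non-adherent cells. Before this, Calcium 4-loaded cells were preincubated with compound in HBSS, 20 mM HEPES pH 7.4, 1% DMSO: 30 min at 37 C plus 30 min at room temperature. Ten 4-fold doses began at 3,000 nM, with ±MIP-1α DMSO wells as controls.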
row,Compound,IC50 [pM]
1,"CC[C@H](NC(=O)c1cncc2c1cnn2-c1ccc(F)cc1)c1coc(S(C)(=O)=O)n1 [1-(4-Fluorophenyl)-1H-pyrazolo[3,4-c]pyridine-4-carboxylic acid [(S)-1-(2-methanesulfonyl-oxazol-4-yl)-propyl]-amide]",4000
2,"C[C@H](NC(=O)c1cncc2c1cnn2-c1ccc(F)cc1)c1cnc(S(C)(=O)=O)o1 [1-(4-Fluorophenyl)-1H-pyrazolo[3,4-c]pyridine-4-carboxylic acid [(S)-1-(2-methanesulfonyl-oxazol-5-yl)-ethyl]-amide]",19000
3,"CC[C@H](NC(=O)c1cncc2c1cnn2-c1ccc(F)cc1)c1cnc(S(C)(=O)=O)o1 [1-(4-Fluorophenyl)-1H-pyrazolo[3,4-c]pyridine-4-carboxylic acid [(S)-1-(2-methanesulfonyl-oxazol-5-yl)-propyl]-amide]",3000
4,"CS(=O)(=O)c1cc([C@H](CC2COC(=O)O2)NC(=O)c2cncc3c2cnn3-c2ccc(F)cc2)ccn1 (stereo partly drawn) [1-(4-Fluorophenyl)-1H-pyrazolo[3,4-c]pyridine-4-carboxylic acid [(S)-1-(2-methanesulfonyl-pyridin-4-yl)-2-(2-oxo-1,3-dioxolan-4-yl)-ethyl]-amide]",6000
5,"C[C@H](NC(=O)c1cncc2c1cnn2-c1ccc(F)cc1)c1csc(S(C)(=O)=O)n1 [1-(4-Fluorophenyl)-1H-pyrazolo[3,4-c]pyridine-4-carboxylic acid [(S)-1-(2-methanesulfonyl-thiazol-4-yl)-ethyl]-amide]",4000
6,"C[C@H](NC(=O)c1cncc2c1cnn2-c1ccc(F)cc1)c1cnc(S(C)(=O)=O)s1 [1-(4-Fluorophenyl)-1H-pyrazolo[3,4-c]pyridine-4-carboxylic acid [(S)-1-(2-methanesulfonyl-thiazol-5-yl)-ethyl]-amide]",6000
7,"CC[C@H](NC(=O)c1cncc2c1cnn2-c1ccc(F)cc1)c1ccnc(C)c1 [1-(4-Fluorophenyl)-1H-pyrazolo[3,4-c]pyridine-4-carboxylic acid [(S)-1-(2-methyl-pyridin-4-yl)-propyl]-amide]",900
8,"CC[C@H](NC(=O)c1cncc2c1cnn2-c1ccc(F)cc1)c1ccnc(NC)c1 [1-(4-Fluorophenyl)-1H-pyrazolo[3,4-c]pyridine-4-carboxylic acid [(S)-1-(2-methylamino-pyridin-4-yl)-propyl]-amide]",4000
9,"CSc1ncc([C@H](C)NC(=O)c2cncc3c2cnn3-c2ccc(F)cc2)o1 [1-(4-Fluorophenyl)-1H-pyrazolo[3,4-c]pyridine-4-carboxylic acid [(S)-1-(2-methylsulfanyl-oxazol-5-yl)-ethyl]-amide]",6000
10,"CC[C@H](NC(=O)c1cncc2c1cnn2-c1ccc(F)cc1)c1cnc(SC)o1 [1-(4-Fluorophenyl)-1H-pyrazolo[3,4-c]pyridine-4-carboxylic acid [(S)-1-(2-methylsulfanyl-oxazol-5-yl)-propyl]-amide]",1000
11,"C[C@H](NC(=O)c1cncc2c1cnn2-c1ccc(F)cc1)c1ccnc(S(N)(=O)=O)c1 [1-(4-Fluorophenyl)-1H-pyrazolo[3,4-c]pyridine-4-carboxylic acid [(S)-1-(2-sulfamoyl-pyridin-4-yl)-ethyl]-amide]",3000
12,"CC[C@H](NC(=O)c1cncc2c1cnn2-c1ccc(F)cc1)c1ccc(OC)c(Br)c1 [1-(4-Fluorophenyl)-1H-pyrazolo[3,4-c]pyridine-4-carboxylic acid [(S)-1-(3-bromo-4-methoxy-phenyl)-propyl]-amide]",7000
13,"CC[C@H](NC(=O)c1cncc2c1cnn2-c1ccc(F)cc1)c1cc(Br)no1 [1-(4-Fluorophenyl)-1H-pyrazolo[3,4-c]pyridine-4-carboxylic acid [(S)-1-(3-bromo-isoxazol-5-yl)-propyl]-amide]",28000
14,"C[C@H](NC(=O)c1cncc2c1cnn2-c1ccc(F)cc1)c1cccc(Cl)c1 [1-(4-Fluorophenyl)-1H-pyrazolo[3,4-c]pyridine-4-carboxylic acid [(S)-1-(3-chlorophenyl)-ethyl]-amide]",5000
15,"CC[C@H](NC(=O)c1cncc2c1cnn2-c1ccc(F)cc1)c1ccc(OC)c(S(C)(=O)=O)c1 [1-(4-Fluorophenyl)-1H-pyrazolo[3,4-c]pyridine-4-carboxylic acid [(S)-1-(3-methanesulfonyl-4-methoxy-phenyl)-propyl]-amide]",6000
16,"C[C@H](NC(=O)c1cncc2c1cnn2-c1ccc(F)cc1)c1cccc(S(C)(=O)=O)c1 [1-(4-Fluorophenyl)-1H-pyrazolo[3,4-c]pyridine-4-carboxylic acid [(S)-1-(3-methanesulfonyl-phenyl)-ethyl]-amide]",1000
17,"CC[C@H](NC(=O)c1cncc2c1cnn2-c1ccc(F)cc1)c1ccnc(N2CCC(F)(F)CC2)c1 [1-(4-Fluorophenyl)-1H-pyrazolo[3,4-c]pyridine-4-carboxylic acid [(S)-1-(4,4-difluoro-3,4,5,6-tetrahydro-2H-[1,2′]bipyridinyl-4′-yl)-propyl]-amide]",3000

# These reach a lower IC50. Values come first.
row,IC50 [pM],Compound
1,700,"CC[C@H](NC(=O)c1cncc2c1cnn2-c1ccc(F)cc1)c1ccnc(N2CCOCC2)c1 [1-(4-Fluorophenyl)-1H-pyrazolo[3,4-c]pyridine-4-carboxylic acid [(S)-1-(2-morpholin-4-yl-pyridin-4-yl)-propyl]-amide]"
2,600,"CC[C@H](NC(=O)c1cncc2c1cnn2-c1ccc(F)cc1)c1cnc(S(C)(=O)=O)s1 [1-(4-Fluorophenyl)-1H-pyrazolo[3,4-c]pyridine-4-carboxylic acid [(S)-1-(2-methanesulfonyl-thiazol-5-yl)-propyl]-amide]"
3,600,"CC[C@H](NC(=O)c1cncc2c1cnn2-c1ccc(F)cc1)c1ccc(S(C)(=O)=O)c(O)c1 [1-(4-Fluorophenyl)-1H-pyrazolo[3,4-c]pyridine-4-carboxylic acid [(S)-1-(3-hydroxy-4-methanesulfonyl-phenyl)-propyl]-amide]"
4,500,"CC[C@H](NC(=O)c1cncc2c1cnn2-c1ccc(F)cc1)c1ccnc([S+](C)[O-])c1 (stereo partly drawn) [1-(4-Fluorophenyl)-1H-pyrazolo[3,4-c]pyridine-4-carboxylic acid [(S)-1-(2-methanesulfinyl-pyridin-4-yl)-propyl]-amide]"
5,400,"COc1cc([C@H](C)NC(=O)c2cncc3c2cnn3-c2ccc(F)cc2)cc(S(C)(=O)=O)n1 [1-(4-Fluorophenyl)-1H-pyrazolo[3,4-c]pyridine-4-carboxylic acid [(S)-1-(2-methanesulfonyl-6-methoxy-pyridin-4-yl)-ethyl]-amide]"
6,400,"CNc1cc([C@H](C)NC(=O)c2cncc3c2cnn3-c2ccc(F)cc2)cc(S(C)(=O)=O)n1 [1-(4-Fluorophenyl)-1H-pyrazolo[3,4-c]pyridine-4-carboxylic acid [(S)-1-(2-methanesulfonyl-6-methylamino-pyridin-4-yl)-ethyl]-amide]"
7,400,"CC[C@H](NC(=O)c1cncc2c1cnn2-c1ccc(F)cc1)c1csc(S(C)(=O)=O)n1 [1-(4-Fluorophenyl)-1H-pyrazolo[3,4-c]pyridine-4-carboxylic acid [(S)-1-(2-methanesulfonyl-thiazol-4-yl)-propyl]-amide]"
8,400,"CC[C@H](NC(=O)c1cncc2c1cnn2-c1ccc(F)cc1)c1ccnc(S(N)(=O)=O)c1 [1-(4-Fluorophenyl)-1H-pyrazolo[3,4-c]pyridine-4-carboxylic acid [(S)-1-(2-sulfamoyl-pyridin-4-yl)-propyl]-amide]"
9,400,"CC[C@H](NC(=O)c1cncc2c1cnn2-c1ccc(F)cc1)c1cccc(Cl)c1 [1-(4-Fluorophenyl)-1H-pyrazolo[3,4-c]pyridine-4-carboxylic acid [(S)-1-(3-chlorophenyl)-propyl]-amide]"
10,300,"CC[C@H](NC(=O)c1cncc2c1cnn2-c1ccc(F)cc1)c1cc(NC)nc(S(C)(=O)=O)c1 [1-(4-Fluorophenyl)-1H-pyrazolo[3,4-c]pyridine-4-carboxylic acid [(S)-1-(2-methanesulfonyl-6-methylamino-pyridin-4-yl)-propyl]-amide]"
11,300,"C=CC[C@H](NC(=O)c1cncc2c1cnn2-c1ccc(F)cc1)c1ccnc(S(C)(=O)=O)c1 [1-(4-Fluorophenyl)-1H-pyrazolo[3,4-c]pyridine-4-carboxylic acid [(S)-1-(2-methanesulfonyl-pyridin-4-yl)-but-3-enyl]-amide]"
12,300,"CC[C@H](NC(=O)c1cncc2c1cnn2-c1ccc(F)cc1)c1cccc(S(C)(=O)=O)c1 [1-(4-Fluorophenyl)-1H-pyrazolo[3,4-c]pyridine-4-carboxylic acid [(S)-1-(3-methanesulfonyl-phenyl)-propyl]-amide]"
13,200,"CC[C@H](NC(=O)c1cncc2c1cnn2-c1ccc(F)cc1)c1cc(NC(C)C)nc(S(C)(=O)=O)c1 [1-(4-Fluorophenyl)-1H-pyrazolo[3,4-c]pyridine-4-carboxylic acid [(S)-1-(2-isopropylamino-6-methanesulfonyl-pyridin-4-yl)-propyl]-amide]"
14,200,"CC[C@H](NC(=O)c1cncc2c1cnn2-c1ccc(F)cc1)c1ccnc(SC)c1 [1-(4-Fluorophenyl)-1H-pyrazolo[3,4-c]pyridine-4-carboxylic acid [(S)-1-(2-methylsulfanyl-pyridin-4-yl)-propyl]-amide]"
15,100,"CC[C@H](NC(=O)c1cncc2c1cnn2-c1ccc(F)cc1)c1cc(OC)nc(S(C)(=O)=O)c1 [1-(4-Fluorophenyl)-1H-pyrazolo[3,4-c]pyridine-4-carboxylic acid [(S)-1-(2-methanesulfonyl-6-methoxy-pyridin-4-yl)-propyl]-amide]"
